The values that follow come from paper PMC7139656, “The Landscape of the Anti-Kinase Activity of the IDH1 Inhibitors” (Cancers, 2020).

Test [1] has as its system mutant IDH1 (2-HG production) in K562 cells. As to the kind of experiment: Mutant IDH1 activity - D-2-hydroxyglutarate production in K562 cells. Format: cell-based, human. The following applies: 24-h incubation; for D-2-HG level after treatment (decrease to): 30 μM. On the procedure: The K562 and U-251 cells were seeded in 3-cm Petri dishes (Nunc) at a density of 0.5 × 10^6 cells/well and incubated at 37 °C for 24 h. […] After a 24-h treatment, the assays were performed using a D-2-Hydroxyglutarate Assay Kit (Abcam) according to the manufacturer’s instructions. Briefly, 25 μL of each cell lysate was transferred onto 96-well plates. Internal and external standards (containing 1 mM D2HG) were also prepared. Then, a freshly prepared reaction mix containing D2HG Assay Buffer, D2HG Enzyme and D2HG Substrate Mix was added to each well. Reaction mixes with the cell lysates were incubated for 60 min at 37 °C in the dark. The optical densities of the samples were analyzed at 450 nm using a Synergy 4 multi-plate reader. The experiments were performed at least four times. The D-2-Hydroxyglutarate concentration is expressed as nM/μL.

For test [2], the system named is IDH1 R132H. The following applies: cited from earlier work.
In test [3] the test system is wild-type IDH1. The following applies: cited from earlier work.
Test [4] addresses T1, ABL1 T315I (Homo sapiens, UniProt P00519, T315I).
T1 construct: purchased Promega
As to the kind of experiment: ABL (T315I) Kinase Assay (ADP-Glo). The following applies: for inhibition at 0.5 µM: compound at 0.5 μM, read-out: Inhibitory Effect of the Non-Receptor Tyrosine Kinase Activity, ABL1 T315I. Format: biochemical. As for the experimental part:
(§1) The inhibition of the tyrosine kinases by the tested compounds was measured using the Kinase Selectivity TK-2 Profiling Systems (Promega) as was previously reported. Briefly, the kinases (ABL1; BRK; BTK; CSK; Fyn A; Lck; Lyn B; Src) and substrate/co factor strips were prepared according to the manufacturer’s instructions. The compounds being tested were dissolved in DMSO to a concentration of 100 μM, which was then used as the stock solution to prepare the 0.5 μM final concentration in a 1x Kinase Reaction Buffer (40 mM Tris – pH 7.5; 20 mM MgCl2; 0.1 mg/mL BSA; 50 μM DTT). The experiment began with transferring 1 μl of the prepared solutions of the tested compounds onto a 384-well white plate that was designed for luminescence (Corning). Then, 2 μL of the kinases from the eight-well strip were added into each well and the plate was incubated for 10 min at room temperature (RT), after which 2 μL of the substrates from the eight-well substrate/co-factor strip were added to each well and the plate was left at RT for 1 h. Solutions of 1x Kinase Reaction Buffer with 5% vehicle (DMSO) were used as the negative controls without an inhibitor or enzymes. The activity of each kinase was determined using an ADP-Glo Kinase Assay (Promega). Firstly, in order to stop the reaction, 5 μL of ADP-Glo reagent was added to each well and the plate was incubated for 40 min at RT. Afterwards, 10 μL of the Kinase Detection Reagent was added to each well and the luminescence was measured in a Synergy 4 multi-plate reader following a 30-min incubation at RT. […] The data are expressed as the percentage of the inhibition of tyrosine kinase after treatment with the tested compounds.
Briefly, the solutions of the compounds being tested at various concentrations were prepared in a 1x Kinase Reaction Buffer. Firstly, 1 μl of the solutions of the tested compounds or vehicle – 5% DMSO (as the control without an inhibitor) were added onto a 384-well low volume white plate. […] After 10 min of incubation at RT, 2 μL of the substrate/ATP mixture was added to each well and incubated for 1h at RT. The luminescence of the kinase activity after treatment with the tested compounds was measured using an ADP-Glo Kinase Assay as was described above. The experiments were performed three times and the results are presented as the IC50 values, which were calculated using GraphPad Prism 7.
(ADP-Glo turns the ADP formed in a reaction into a luminescent signal.)

In test [5] the target is T2, BTK (Homo sapiens, UniProt Q06187).
T2 construct: purchased Promega
Nature of the test: Tyrosine kinase inhibition in vitro (TK-2 panel, ADP-Glo). Format: biochemical. The following applies: for inhibition at 0.5 µM: compound at 0.5 μM, read-out: Inhibitory Effect of the Non-Receptor Tyrosine Kinase Activity, BTK. As for the experimental part:
as §1

Test [6] addresses T3, Fyn A (Homo sapiens, UniProt P06241).
T3 construct: purchased Promega
The test is described as above. In kind it is biochemical. The following applies: for inhibition at 0.5 µM: compound at 0.5 μM, read-out: Inhibitory Effect of the Non-Receptor Tyrosine Kinase Activity, Fyn A. On the procedure:
as §1

The target in test [7] is T4, Lck (Homo sapiens, UniProt P06239).
T4 construct: purchased Promega
The description is as above. Format: biochemical. To be noted: compound at 0.5 μM; read-out: Inhibitory Effect of the Non-Receptor Tyrosine Kinase Activity, Lck. As for the experimental part:
as §1

Test [8] deals with T5, CSK (Homo sapiens, UniProt P41240).
T5 construct: purchased Promega
The description is as above. Format: biochemical. The following applies: compound at 0.5 μM; read-out: Inhibitory Effect of the Non-Receptor Tyrosine Kinase Activity, CSK. As for the experimental part: as §1

Test [9] addresses T6, BRK (Homo sapiens, UniProt Q13882).
T6 construct: purchased Promega
The test is described as above. In kind it is biochemical. The following applies: compound at 0.5 μM; read-out: Inhibitory Effect of the Non-Receptor Tyrosine Kinase Activity, BRK. As for the experimental part:
as §1

Test [10] concerns the target T7, Src (Homo sapiens, UniProt P12931).
T7 construct: purchased Promega
Described as above. Format: biochemical. The following applies: compound at 0.5 μM; read-out: Inhibitory Effect of the Non-Receptor Tyrosine Kinase Activity, Src. As for the experimental part:
as §1

Test [11] addresses T8, ABL1 native (Homo sapiens, UniProt P00519).
T8 construct: purchased Promega
As to the kind of experiment: Tyrosine kinase inhibition in vitro (Kinase Selectivity TK-2 Profiling System, ADP-Glo). In kind it is biochemical. The following applies: for inhibition at 0.5 µM: compound at 0.5 μM, read-out: Inhibitory Effect of the Non-Receptor Tyrosine Kinase Activity, ABL1 native. On the procedure: as §1

The test system of test [12] is HCT 116 p53+/+. Nature of the test: Cytotoxicity / antiproliferative activity, MTS test. In kind it is cell-based. To be noted: Homo sapiens, 72-h incubation. As for the experimental part: (§2) M. Rusin from the Maria Sklodowska-Curie Memorial Cancer Centre and Institute of Oncology in Gliwice, Poland. […] G. Kramer-Marek from The Institute of Cancer Research in London, United Kingdom. The pancreatic cell line PANC-1 and the human chronic myelogenous leukemia cell line K562 were purchased from Sigma-Aldrich. […] All of these cell lines were grown under standard conditions at 37 °C in a 5% CO2 humidified atmosphere. Prior to beginning the experiments, all of the cell lines were subjected to routine mycoplasma testing with specific Mycoplasma primers using the PCR technique.
(§3) The exponentially growing cells for all of the cell lines were seeded in 96-well plates (Nunc) at a density of 5000 cells/well and incubated at 37 °C for 24 h. The assay was performed following a 72-h incubation with the various concentrations of the compounds that were being tested. Then, 20 µL of CellTiter 96®AQueous One Solution-MTS (Promega) solution was added to each well (with 100 µL DMEM without phenol red) and incubated for 1 h at 37 °C. The optical densities of the samples were analyzed at 490 nm using a multi-plate reader (Synergy 4, BioTek). The results are expressed as the percentage of the control and were calculated as the inhibitory concentration (IC50) values using GraphPad Prism 7. Each individual compound was tested in triplicate in a single experiment with each experiment being repeated five times.

Test [13] has as its system PANC-1. The description is as above. The following applies: Homo sapiens, 72-h incubation. In kind it is cell-based. As for the experimental part:
as §2, §3

In test [14] the test system is HCT 116 p53-/-. Described as above. To be noted: Homo sapiens, 72-h incubation. Format: cell-based. As for the experimental part:
as §2, §3

Test [15] relates to K562. The test is described as above. To be noted: Homo sapiens, 72-h incubation. Format: cell-based. On the procedure:
as §2, §3

Test [16] relates to MCF-7. The test is described as above. Format: cell-based. To be noted: Homo sapiens, MCF7, 72-h incubation. On the procedure:
as §2, §3

Test [17] deals with U-251. Described as above. Format: cell-based. The following applies: Homo sapiens, 72-h incubation. As for the experimental part: as §2, §3
In test [18] the target is T9, Lyn B (Homo sapiens, UniProt P07948).
T9 construct: purchased Promega
As to the kind of experiment: Tyrosine kinase inhibition in vitro (TK-2 panel, ADP-Glo). The following applies: for inhibition at 0.5 µM: compound at 0.5 μM, read-out: Inhibitory Effect of the Non-Receptor Tyrosine Kinase Activity, Lyn B. Format: biochemical.

Test [19] deals with ABL1 enzyme (Homo sapiens, UniProt P00519). Nature of the test: Pharmacological synergy on the ABL enzyme model (TOS inhibitors and axitinib, ABL1 Kinase Assay, Chou-Talalay). The following applies: for Combination index [CI]: combination with axitinib, for Fa = 0.9, CI < 1 synergy, CompuSyn.
Description: The experiments were performed at least three times. The synergy was calculated according to the Chou-Talay method (CompuSyn software) [33, 70]. Briefly, the concentration range was adjusted to cover the specified IC50 value against the ABL1 enzyme for each inhibitor.
Test [20] has as its system ABL1 recombinant protein. On the set-up: method as in PMID 19679652. To be noted: cited from earlier work.

The structures appear in SMILES notation.

T3 sequence (P06241 whole entry): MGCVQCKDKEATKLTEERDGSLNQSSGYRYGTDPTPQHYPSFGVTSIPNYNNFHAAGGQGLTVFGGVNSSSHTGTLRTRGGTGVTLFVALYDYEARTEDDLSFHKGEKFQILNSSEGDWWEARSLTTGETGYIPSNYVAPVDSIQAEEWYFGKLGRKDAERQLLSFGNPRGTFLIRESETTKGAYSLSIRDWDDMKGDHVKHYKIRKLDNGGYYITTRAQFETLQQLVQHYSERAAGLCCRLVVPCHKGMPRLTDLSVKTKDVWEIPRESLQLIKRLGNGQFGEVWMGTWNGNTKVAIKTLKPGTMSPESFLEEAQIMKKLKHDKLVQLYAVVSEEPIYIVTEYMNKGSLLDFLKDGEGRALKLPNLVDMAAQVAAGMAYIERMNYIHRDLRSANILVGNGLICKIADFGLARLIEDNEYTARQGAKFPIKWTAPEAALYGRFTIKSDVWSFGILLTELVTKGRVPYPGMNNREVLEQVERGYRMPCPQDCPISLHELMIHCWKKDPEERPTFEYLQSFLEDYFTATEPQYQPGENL
T9 sequence (P07948 1-491 isoform P07948-2): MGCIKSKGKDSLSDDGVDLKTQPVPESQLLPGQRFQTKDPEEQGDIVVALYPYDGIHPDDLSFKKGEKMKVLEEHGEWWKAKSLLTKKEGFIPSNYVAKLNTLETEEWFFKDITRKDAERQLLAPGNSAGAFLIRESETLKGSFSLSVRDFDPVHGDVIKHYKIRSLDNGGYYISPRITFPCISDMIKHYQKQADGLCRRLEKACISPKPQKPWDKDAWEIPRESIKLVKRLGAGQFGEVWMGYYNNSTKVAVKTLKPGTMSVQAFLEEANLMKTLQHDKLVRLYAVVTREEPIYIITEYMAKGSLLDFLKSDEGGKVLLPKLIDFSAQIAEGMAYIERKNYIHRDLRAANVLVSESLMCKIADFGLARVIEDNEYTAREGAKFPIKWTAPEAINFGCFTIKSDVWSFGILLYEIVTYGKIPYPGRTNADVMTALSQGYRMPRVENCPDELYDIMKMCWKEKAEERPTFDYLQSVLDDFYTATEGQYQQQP
T2 sequence (Q06187 whole entry): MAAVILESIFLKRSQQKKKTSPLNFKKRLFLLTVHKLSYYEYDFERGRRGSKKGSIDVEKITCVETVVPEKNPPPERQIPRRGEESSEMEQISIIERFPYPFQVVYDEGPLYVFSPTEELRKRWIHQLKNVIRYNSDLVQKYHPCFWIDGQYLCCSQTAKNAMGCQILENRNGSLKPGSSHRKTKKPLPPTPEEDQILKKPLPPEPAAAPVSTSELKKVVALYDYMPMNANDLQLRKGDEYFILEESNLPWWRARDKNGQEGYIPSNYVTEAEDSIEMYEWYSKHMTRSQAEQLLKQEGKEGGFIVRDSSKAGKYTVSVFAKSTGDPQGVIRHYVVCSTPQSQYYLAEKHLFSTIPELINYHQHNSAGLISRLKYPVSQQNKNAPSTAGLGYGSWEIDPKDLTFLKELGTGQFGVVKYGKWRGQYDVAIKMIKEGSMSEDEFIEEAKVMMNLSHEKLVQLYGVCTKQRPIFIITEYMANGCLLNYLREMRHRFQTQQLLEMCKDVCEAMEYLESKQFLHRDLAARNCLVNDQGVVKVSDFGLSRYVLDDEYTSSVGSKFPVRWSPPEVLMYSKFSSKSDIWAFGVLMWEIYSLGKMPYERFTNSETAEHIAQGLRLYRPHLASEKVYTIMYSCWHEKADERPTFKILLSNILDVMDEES
T7 sequence (P12931 whole entry): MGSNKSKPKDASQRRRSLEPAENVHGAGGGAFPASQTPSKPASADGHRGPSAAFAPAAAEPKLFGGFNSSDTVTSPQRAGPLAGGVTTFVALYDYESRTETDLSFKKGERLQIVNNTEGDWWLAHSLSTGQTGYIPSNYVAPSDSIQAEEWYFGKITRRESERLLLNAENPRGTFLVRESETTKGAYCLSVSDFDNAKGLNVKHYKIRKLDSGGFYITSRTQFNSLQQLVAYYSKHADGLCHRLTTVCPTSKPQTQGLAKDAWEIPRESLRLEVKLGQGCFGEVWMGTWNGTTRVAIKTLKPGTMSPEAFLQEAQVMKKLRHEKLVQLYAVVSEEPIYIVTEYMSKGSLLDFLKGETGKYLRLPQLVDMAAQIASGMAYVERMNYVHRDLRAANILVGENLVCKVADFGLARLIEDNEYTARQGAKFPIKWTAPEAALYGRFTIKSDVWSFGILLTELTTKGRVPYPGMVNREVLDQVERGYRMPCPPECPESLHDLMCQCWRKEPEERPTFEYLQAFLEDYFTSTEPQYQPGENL
T5 sequence (P41240 whole entry): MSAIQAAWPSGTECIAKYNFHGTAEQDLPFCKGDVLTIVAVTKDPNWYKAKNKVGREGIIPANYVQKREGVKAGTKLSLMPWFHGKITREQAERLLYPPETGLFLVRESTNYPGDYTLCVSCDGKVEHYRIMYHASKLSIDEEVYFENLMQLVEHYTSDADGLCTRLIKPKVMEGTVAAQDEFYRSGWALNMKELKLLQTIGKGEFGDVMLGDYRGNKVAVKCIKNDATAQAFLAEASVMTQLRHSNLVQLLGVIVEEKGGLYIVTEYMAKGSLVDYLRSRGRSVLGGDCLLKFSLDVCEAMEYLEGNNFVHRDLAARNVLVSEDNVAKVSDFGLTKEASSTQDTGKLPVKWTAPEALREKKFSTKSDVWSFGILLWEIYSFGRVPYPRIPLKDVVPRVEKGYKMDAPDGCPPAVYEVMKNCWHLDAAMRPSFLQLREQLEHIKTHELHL
T6 sequence (Q13882 whole entry): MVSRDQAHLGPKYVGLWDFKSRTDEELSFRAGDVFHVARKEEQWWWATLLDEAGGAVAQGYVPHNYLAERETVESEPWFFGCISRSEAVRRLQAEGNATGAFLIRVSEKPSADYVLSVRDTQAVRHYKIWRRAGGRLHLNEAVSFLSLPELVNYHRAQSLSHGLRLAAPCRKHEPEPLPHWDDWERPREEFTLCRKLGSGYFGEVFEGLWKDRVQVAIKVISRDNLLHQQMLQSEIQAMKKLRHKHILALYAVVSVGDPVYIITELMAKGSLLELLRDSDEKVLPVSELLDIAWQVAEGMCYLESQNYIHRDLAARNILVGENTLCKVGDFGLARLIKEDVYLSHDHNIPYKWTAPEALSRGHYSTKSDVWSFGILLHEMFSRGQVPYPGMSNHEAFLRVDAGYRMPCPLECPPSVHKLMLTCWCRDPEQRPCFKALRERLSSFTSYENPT
T4 sequence (P06239 whole entry): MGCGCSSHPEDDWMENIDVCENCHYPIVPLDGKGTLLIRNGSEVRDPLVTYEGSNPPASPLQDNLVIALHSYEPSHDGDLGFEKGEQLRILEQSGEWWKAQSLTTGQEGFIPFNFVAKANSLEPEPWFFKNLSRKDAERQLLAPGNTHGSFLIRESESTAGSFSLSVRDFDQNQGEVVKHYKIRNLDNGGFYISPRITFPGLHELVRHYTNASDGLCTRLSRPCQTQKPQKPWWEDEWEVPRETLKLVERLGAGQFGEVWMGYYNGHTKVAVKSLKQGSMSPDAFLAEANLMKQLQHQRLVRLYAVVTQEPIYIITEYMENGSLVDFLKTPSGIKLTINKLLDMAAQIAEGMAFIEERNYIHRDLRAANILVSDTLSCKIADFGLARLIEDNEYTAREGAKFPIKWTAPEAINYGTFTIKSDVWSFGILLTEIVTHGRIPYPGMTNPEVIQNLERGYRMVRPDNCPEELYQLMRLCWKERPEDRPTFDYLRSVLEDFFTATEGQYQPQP

For `CNC(=O)c1ccccc1Sc1ccc2c(/C=C/c3ccccn3)n[nH]c2c1` [Axitinib, axitinib, reference compound], the “reduced level of 2-hydroxyglutarate” value in test [1] (axitinib 0.5 μM) is 46%.
Regarding `C[C@H](O)c1cccc(NC(=O)c2nn(Cc3ccc(F)cc3)c3c2CN(C(=O)c2ccc[nH]2)C[C@H]3C)c1` [GSK-321], the “inhibitory activity against IDH1 R132H in biochemical tests” value in test [2] is 4.6 nM.
A word on the IC50: it is the concentration that gives 50% inhibition. As to `N#Cc1ccnc(N2C(=O)CC[C@H]2C(=O)N(c2cncc(F)c2)[C@H](C(=O)NC2CC(F)(F)C2)c2ccccc2Cl)c1` [ivosidenib], the IC50 in test [3] was 0.024 µM; in [2] (read-out: IC50 IDH1 mutant) it was 0.012 µM.
Regarding `CCCCc1ccc(NS(=O)(=O)c2ccc(C)c(C(=O)N3CCN(c4ccccc4OCCF)CC3)c2)cc1` [TOS-2, N-(4-butylphenyl)-3-{4-[2-(2-fluoroethoxy)phenyl]piperazine-1-carbonyl}-4-methylbenzene-1-sulfonamide], the IC50 was more than 10 µM in test [4]; 0.522 µM in test [5]; 0.401 µM in [11]; 24.4 ± 0.82 µM in test [12]; 18.9 ± 0.42 µM in [13]; 28.9 ± 1.07 µM in test [14]. Moreover, the IC50 in [15] was 17.3 ± 2.23 µM; in test [16] it was 15.6 ± 1.35 µM; in test [17] it was more than 30 µM; in test [18], 5 µM. Moreover, the inhibition at 0.5 µM amounted to 26.1 ± 6.61% in test [4]; 50.9 ± 1.87% in [5]; 19.6 ± 2.78% in test [6]; 0% in [7]; 9.66 ± 3.59% in [8]; 0% in [9]. Further, the inhibition at 0.5 µM in [10] came out at 13.8 ± 4.23%; in test [11], 59.2 ± 8.12%; in [18], 0%. In test [1], the “D-2-HG level after treatment (decrease to)” value came to 48%. Further, the “Fa (fraction affected), combination with axitinib” value in test [19] (TOS-2 0.0625 µM + axitinib 0.0625 µM) was found to be 0.354; in test [19] (TOS-2 0.125 µM + axitinib 0.125 µM), 0.4632; in test [19] (TOS-2 0.25 µM + axitinib 0.25 µM) it was 0.6215; in test [19] (TOS-2 0.5 µM + axitinib 0.5 µM), 0.6852; in test [19] (TOS-2 1 µM + axitinib 1 µM), 0.8101. In addition, the “Combination index [CI]” value in test [19] was 0.75. Besides, the “Fa (fraction affected), single agent” value in [19] (dose 0.0625 µM) was 0.07245; in [19] (dose 0.125 µM) it was 0.2475; in [19] (dose 0.25 µM) it was 0.3737; in [19] (dose 0.5 µM), 0.518; in test [19] (dose 1 µM) it was 0.638.
As to `CCCCc1ccc(NS(=O)(=O)c2ccc(C)c(C(=O)N3CCN(c4ccccc4O)CC3)c2)cc1` [TOS-1, N-(4-butylphenyl)-3-[4-(2-hydroxyphenyl)piperazine-1-carbonyl]-4-methylbenzene-1-sulfonamide], the IC50 in test [4] is 5.02 µM; in test [5], 4.94 µM; in test [6], 4.15 µM; in test [11] it was 0.934 µM; in test [12], 24.7 ± 0.32 µM; in [13], 25.2 ± 3.38 µM. For the same molecule, the IC50 stood at 27.83 ± 0.17 µM in [14]; 12.7 ± 3.2 µM in [15]; 18.1 ± 1 µM in test [16]; 27.59 ± 0.17 µM in [17]; 5 µM in test [18]. Besides, the inhibition at 0.5 µM in test [4] turned out to be 29.3 ± 7.43%; in test [5] it was 32.3 ± 7.43%; in test [6] it was 29.9 ± 4.29%; in test [7], 34.7 ± 2.51%; in test [8], 38.4 ± 6.15%; in test [9], 22.6 ± 0.94%. The figures for the inhibition at 0.5 µM in test [10], in test [11] and in [18] were 0%, 42.8 ± 8.46% and 0%, respectively. In test [1], the “D-2-HG level after treatment (decrease to)” value was found to be 24%. Further, the “Fa (fraction affected), combination with axitinib” value in test [19] (TOS-1 0.375 µM + axitinib 0.125 µM) was 0.3787; in test [19] (TOS-1 0.625 µM + axitinib 0.25 µM), 0.4837; in test [19] (TOS-1 1.25 µM + axitinib 0.5 µM), 0.7204; in [19] (TOS-1 2.5 µM + axitinib 1 µM), 0.8412. Further, in [19], the “Combination index [CI]” value is 0.5. The “Fa (fraction affected), single agent” value in test [19] (dose 0.375 µM) was determined as 0.1126; in test [19] (dose 0.625 µM) it was 0.4149; in test [19] (dose 1.25 µM), 0.559; in test [19] (dose 2.5 µM), 0.5863.
Turning to `NC(=O)c1cccc(-c2cc(Nc3ccc(OC(F)(F)F)cc3)ncn2)c1` [GNF-2], the “level of activity towards recombinant ABL1 protein” value in test [20] is on record as ~ 1 μM.
